In patent publication US12458021B2, “Microbiocidal derivatives” (SYNGENTA CROP PROTECTION AG, priority 2019, dated 2025):

Tests used:
Alternaria solani = Alternaria solani / tomato / leaf disc (early blight); type: in vivo; settings: foliar, tomato leaf disks cv. Baby, inoculated 2 days after application, assessed 5-7 days after application, read-out: control of Alternaria solani (percent disease control compared to untreated)
Protocol: Example B1: Alternaria solani/Tomato/Leaf Disc (Early Blight) Tomato leaf disks cv. Baby are placed on agar in multiwell plates (24-well format) and sprayed with the formulated test compound diluted in water. The leaf disks are inoculated with a spore suspension of the fungus 2 days after application. The inoculated leaf disks are incubated at 23° C./21° C. […] […]-185.

[1] = test system: Glomerella lagenarium (Colletotrichum lagenarium); test: Glomerella lagenarium (Colletotrichum lagenarium) / liquid culture (anthracnose); type: cell-based; settings: Colletotrichum orbiculare, PDB potato dextrose broth, 24° C., 3-4 days after application, read-out: control of Glomerella lagenarium (inhibition of growth, photometric)
How it was run: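 Conidia from cryogenic storage suspended in potato dextrose broth and added to DMSO compound solution in plates. Incubated at 24° C; growth inhibition read photometrically 3-4 days after application.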

[2] = test system: Blumeria graminis f. sp. tritici (Erysiphe graminis f. sp. tritici); test: Blumeria graminis f. sp. tritici / wheat / leaf disc preventative (powdery mildew on wheat); type: in vivo; settings: foliar, wheat leaf segments cv. Kanzler, inoculated 1 day after application, assessed 6-8 days after application, read-out: control of Blumeria graminis f. sp. tritici (percent disease control compared to untreated)
Excerpt: Example B4: Blumeria graminis f. sp. tritici (Erysiphe graminis f. sp. tritici)/Wheat/Leaf Disc Preventative (Powdery Mildew on Wheat) Wheat leaf segments cv. Kanzler are placed on agar in a multiwell plate (24-well format) and sprayed with the formulated test compound diluted in water. The leaf disks are inoculated by shaking powdery mildew infected plants above the test plates 1 day after application. […] […]-192.

Fusarium culmorum = test: microbe, parasite or virus in culture; type: cell-based; settings: read-out: control of Fusarium culmorum (inhibition of growth, photometric)
[3] = test system: Phaeosphaeria nodorum (Septoria nodorum); test: Phaeosphaeria nodorum (Septoria nodorum) / wheat / leaf disc preventative (glume blotch); type: in vivo; settings: Parastagonospora nodorum, foliar, wheat leaf segments cv. Kanzler, inoculated 2 days after application, assessed 5-7 days after application, read-out: control of Phaeosphaeria nodorum (percent disease control compared to untreated)
How it was run: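 Wheat cv. Kanzler leaf discs on agar were sprayed with formulated compound diluted in water and inoculated with spores 2 days later. Discs were kept at 20° C, 75% rh, 12 h light/dark; percent disease control versus untreated was scored 5-7 days after application.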

[4] = test system: Monographella nivalis (Microdochium nivale); test: Monographella nivalis (Microdochium nivale) / liquid culture (foot rot cereals); type: cell-based; settings: PDB potato dextrose broth, 24° C., 4-5 days after application, read-out: control of Monographella nivalis (inhibition of growth, photometric)
How it was run: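 Cryostored M. nivalis conidia mixed into potato dextrose broth and added to 96-well plates holding test compound in DMSO. Incubated at 24° C; growth inhibition read photometrically 4-5 days after application.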

[5] = test system: Mycosphaerella arachidis (Cercospora arachidicola); test: Mycosphaerella arachidis (Cercospora arachidicola) / liquid culture (early leaf spot); type: cell-based; settings: PDB potato dextrose broth, 24° C., 4-5 days after application, read-out: control of Mycosphaerella arachidis (inhibition of growth, photometric)
How it was run: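 Conidia from cryogenic storage suspended in potato dextrose broth and added to compound in DMSO. Incubation at 24° C; growth inhibition read photometrically 4-5 days after application.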

[6] = test system: Puccinia recondita f. sp. tritici; test: Puccinia recondita f. sp. tritici / wheat / leaf disc curative (brown rust); type: in vivo; settings: foliar, wheat leaf segments cv. Kanzler, compound applied 1 day after inoculation, assessed 6-8 days after application, read-out: control of Puccinia recondita f. sp. tritici, curative (percent disease control compared to untreated)
Protocol: Example B10: Puccinia recondita f. sp. tritici/Wheat/Leaf Disc Curative (Brown Rust) Wheat leaf segments cv. Kanzler are placed on agar in multiwell plates (24-well format). The leaf segments are inoculated with a spore suspension of the fungus. Plates are stored in darkness at 19° C. and 75% rh. The formulated test compound diluted in water is applied 1 day after inoculation. […] […]-185.

[7] = test system: Puccinia recondita f. sp. tritici; test: Puccinia recondita f. sp. tritici / wheat / leaf disc preventative (brown rust); type: in vivo; settings: foliar, wheat leaf segments cv. Kanzler, inoculated 1 day after application, assessed 7-9 days after application, read-out: control of Puccinia recondita f. sp. tritici, preventative (percent disease control compared to untreated)
How it was run: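 Wheat leaf segments (cv. Kanzler) on agar were sprayed with formulated compound, then inoculated with spores 1 day later. Segments were incubated at 19 °C, 75% rh with 12 h light/dark. Percent disease control versus untreated was scored 7–9 days after application.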

[8] = test system: Magnaporthe grisea (Pyricularia oryzae); test: whole plant or invertebrate; type: in vivo; settings: foliar, read-out: control of Magnaporthe grisea (percent disease control compared to untreated)
Pyrenophora teres = Pyrenophora teres / barley / leaf disc preventative (net blotch); type: in vivo; settings: foliar, barley leaf segments cv. Hasso, inoculated 2 days after application, assessed 5-7 days after application, read-out: control of Pyrenophora teres (disease control compared to untreated)
How it was run: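 Barley cv. Hasso leaf discs on agar were sprayed with diluted formulated compound, then inoculated with spore suspension 2 days later. Incubation at 20 °C, 65% rh, 12 h light/dark; disease control versus untreated assessed 5-7 days after application.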

Sclerotinia sclerotiorum = Sclerotinia sclerotiorum / liquid culture (cottony rot); type: cell-based; settings: PDB potato dextrose broth, mycelia fragments, 24° C., 3-4 days after application, read-out: control of Sclerotinia sclerotiorum (inhibition of growth, photometric)
How it was run: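 Mycelial fragments of a fresh liquid culture in potato dextrose broth were added to compound dispensed from DMSO solution. Plates were incubated at 24° C. Growth inhibition was measured photometrically 3–4 days after application.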

[9] = test system: Mycosphaerella graminicola (Septoria tritici); test: Mycosphaerella graminicola (Septoria tritici) / liquid culture (Septoria blotch); type: cell-based; settings: Zymoseptoria tritici, PDB potato dextrose broth, 24° C., 4-5 days after application, read-out: control of Mycosphaerella graminicola (inhibition of growth, photometric)
How it was run: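 Conidia from cryogenic storage were mixed into potato dextrose broth and added to test compound in DMSO. Plates were incubated at 24° C, and growth inhibition was read photometrically 4-5 days after application.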

[10] = test system: Botryotinia fuckeliana (Botrytis cinerea); test: Botryotinia fuckeliana (Botrytis cinerea) / liquid culture (gray mould); type: cell-based; settings: Vogels broth, 24° C., 3-4 days after application, read-out: control of Botryotinia fuckeliana (inhibition of growth, photometric)
How it was run: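 Botrytis cinerea conidia in Vogels broth were added to compound supplied as DMSO solution. Plates were incubated at 24 °C, and growth inhibition was read photometrically 3-4 days after application.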

COc1ccc(Nc2cc(F)cc(F)c2)nc1C(=O)NC1(C)CCCC1 [Compound P-107, 6-(3,5-difluoroanilino)-3-methoxy-N-(1-methylcyclopentyl)pyridine-2-carboxamide]
≥ 80%: pest or weed control at 200 ppm (Alternaria solani) | inhibition at 20 ppm [1] | pest or weed control at 200 ppm [2] | inhibition at 20 ppm (Fusarium culmorum) | pest or weed control at 200 ppm [3] | inhibition at 20 ppm [4] | inhibition at 20 ppm [5] | pest or weed control at 200 ppm [6] | pest or weed control at 200 ppm [7] | pest or weed control at 200 ppm [8] | pest or weed control at 200 ppm (Pyrenophora teres) | inhibition at 20 ppm (Sclerotinia sclerotiorum) | inhibition at 20 ppm [9]

COc1ccc(Nc2cc(F)cc(F)c2)nc1C(=O)NC1(C)CCCCC1 [Compound P-108, 6-(3,5-difluoroanilino)-3-methoxy-N-(1-methylcyclohexyl)pyridine-2-carboxamide]
≥ 80%: inhibition at 20 ppm [1] | pest or weed control at 200 ppm [2] | inhibition at 20 ppm (Fusarium culmorum) | inhibition at 20 ppm [4] | inhibition at 20 ppm [5] | pest or weed control at 200 ppm [7] | pest or weed control at 200 ppm [8] | pest or weed control at 200 ppm (Pyrenophora teres) | inhibition at 20 ppm (Sclerotinia sclerotiorum) | inhibition at 20 ppm [9]

CCC1(NC(=O)c2nc(Nc3cc(F)cc(F)c3)ccc2OC)CCC1 [Compound P-178, 6-(3,5-difluoroanilino)-N-(1-ethylcyclobutyl)-3-methoxy-pyridine-2-carboxamide]
≥ 80%: pest or weed control at 200 ppm (Alternaria solani) | inhibition at 20 ppm [10] | inhibition at 20 ppm [1] | pest or weed control at 200 ppm [2] | inhibition at 20 ppm (Fusarium culmorum) | pest or weed control at 200 ppm [3] | inhibition at 20 ppm [4] | inhibition at 20 ppm [5] | pest or weed control at 200 ppm [6] | pest or weed control at 200 ppm [7] | pest or weed control at 200 ppm (Pyrenophora teres) | inhibition at 20 ppm [9]
